Measurements published in US10980805B2, “Aza-pyridone compounds and uses thereof” (Janssen BioPharma, Inc., priority 2013, dated 2021).
Like-named read-outs stand apart in the source and are kept apart here.

Tests used:
[1] = system: Influenza strain A549_A/WSN/33 (H1N1); experiment: Influenza antiviral assay (neuraminidase fluorescence readout); type: cell-based, Influenza virus; conditions: read-out: % Inhibition (EC50 class, Table 2)
[2] = target: Full length EN PA (influenza PA endonuclease) (Influenza A virus, UniProt P15659); experiment: EN PA FRET inhibition assay; type: biochemical; conditions: FRET probe, mean of a minimum of two independent experiments, read-out: Potency (IC50 class, Table 3)

SMILES | EC50 ([1]; Influenza A virus) | IC50 [2] | EC50 [1]
O=C1c2c(O)c(=O)cnn2[C@@H](C(c2cccc(F)c2)c2cccc(F)c2)CN1CCO [Compound 92-A] | < 20 µM | < 0.25 µM | –
CCN1C[C@@H](C(c2cccc(F)c2)c2cccc(F)c2)n2ncc(=O)c(O)c2C1=O [Compound 21-B] | < 20 µM | < 0.25 µM | –
CN1C[C@H]([C@@H](c2ccccc2)n2ccnc2)n2ncc(=O)c(O)c2C1=O [Compound 108-A] | 20 to 100 µM | < 0.25 µM | –
Cc1cccc(C(c2cccc(C)c2)C2CN(C(C)C)C(=O)c3c(O)c(=O)cnn32)c1 (stereo not shown) [Compound 48] | < 20 µM | < 0.25 µM | –
CC#Cc1ccn([C@H](c2ccccc2)[C@@H]2CN(C)C(=O)c3c(O)c(=O)cnn32)n1 [Compound 115-A] | < 20 µM | ≥ 1 µM | –
CC(C)N1C[C@H](C(c2ccccc2)c2cccc(Cl)c2)n2ncc(=O)c(O)c2C1=O (single isomer, unassigned) [Compound 73-A] | < 20 µM | < 0.25 µM | –
CN1C[C@H](C2c3cccc(F)c3CCc3c(F)cccc32)n2ncc(=O)c(O)c2C1=O [Compound 83-A] | < 20 µM | < 0.25 µM | –
CC(C)N1C[C@H]([C@@H](c2ccccc2)n2ccc(C#N)n2)n2ncc(=O)c(O)c2C1=O [Compound 127-C] | – | 0.25 to 1 µM | < 20 µM
CC(C)N1C[C@H](C(c2ccccc2)c2ccccc2)n2ncc(=O)c(OC(=O)C3CCCC3)c2C1=O [Compound 119] | < 20 µM | < 0.25 µM | –
CC(C)N1CC(C(c2ccccc2)c2ccccc2)n2ncc(=O)c(O)c2C1=O (stereo not shown) [Compound 6] | < 20 µM | < 0.25 µM | –
CCN1CC(C(c2ccccc2)c2cccc(OC)c2)n2ncc(=O)c(O)c2C1=O (stereo not shown) [Compound 34] | < 20 µM | < 0.25 µM | –
CCN1CC(C(c2cccc(Cl)c2)c2cccc(Cl)c2)n2ncc(=O)c(O)c2C1=O (stereo not shown) [Compound 39] | < 20 µM | < 0.25 µM | –
O=C1NCC(C2c3ccccc3CSc3cc(Cl)ccc32)n2ncc(=O)c(O)c21 (stereo not shown) [Compound 16] | < 20 µM | 0.25 to 1 µM | –
CCN1C[C@H](C2c3ccccc3CCc3ccccc32)n2ncc(=O)c(O)c2C1=O [Compound 14-A] | < 20 µM | < 0.25 µM | –
COc1cccc(C(c2ccccc2)C2CN(C)C(=O)c3c(O)c(=O)cnn32)c1 (stereo not shown) [Compound 26] | < 20 µM | < 0.25 µM | –
CC(C)[C@H](N)C(=O)OCOc1c2n(ncc1=O)[C@@H](C(c1ccccc1)c1ccccc1)CN(C(C)C)C2=O [Compound 96-A] | < 20 µM | < 0.25 µM | –
O=C1NCC(C2c3ccccc3CSc3c(Cl)cccc32)n2ncc(=O)c(O)c21 (stereo not shown) [Compound 10] | < 20 µM | < 0.25 µM | –
O=C1c2c(O)c(=O)cnn2[C@@H](C(c2cccc(F)c2)c2cccc(F)c2)CN1Cc1ccccc1 [Compound 75-A] | < 20 µM | < 0.25 µM | –
CN1CC(C(c2ccccc2)c2cccc(CC(N)=O)c2)n2ncc(=O)c(O)c2C1=O (stereo not shown) [Compound 101] | 20 to 100 µM | < 0.25 µM | –
O=C1c2c(O)c(=O)cnn2[C@@H](C(c2cccc(F)c2)c2cccc(F)c2)CN1CC1CC1 [Compound 93-A] | < 20 µM | < 0.25 µM | –
CCN1C[C@@H](C(c2cccc(Cl)c2)c2cccc(Cl)c2)n2ncc(=O)c(O)c2C1=O [Compound 39-B] | < 20 µM | 0.25 to 1 µM | –

SMILES | EC50 ([1]; Influenza A virus) | IC50 [2] | EC50 [1]
CN1C[C@@H]([C@@H](c2ccccc2)c2cccc(OC3CC3)c2)n2ncc(=O)c(O)c2C1=O [Compound 105-D] | 20 to 100 µM | ≥ 1 µM | –
CCN1CC(C2c3ccccc3CCc3ccccc32)n2ncc(=O)c(O)c2C1=O (stereo not shown) [Compound 14] | < 20 µM | < 0.25 µM | –
COCCN1C[C@H](C(c2ccccc2)c2ccccc2)n2ncc(=O)c(O)c2C1=O [Compound 53-A] | < 20 µM | < 0.25 µM | –
CN1C[C@@H](C2c3ccc(F)cc3CCc3c(F)cccc32)n2ncc(=O)c(O)c2C1=O (stereo partly shown) [Compound 81-B] | 20 to 100 µM | < 0.25 µM | –
CN1CC(C(c2ccccc2)c2ccc(F)cc2)n2ncc(=O)c(O)c2C1=O (stereo not shown) [Compound 40] | < 20 µM | < 0.25 µM | –
CCN1C[C@H]([C@@H](c2ccccc2)c2cccc(Cl)c2)n2ncc(=O)c(O)c2C1=O [Compound 12-A] | < 20 µM | < 0.25 µM | –
CN1CC(C(c2cccc(C#N)c2)c2cccc(C#N)c2)n2ncc(=O)c(O)c2C1=O (stereo not shown) [Compound 102] | 20 to 100 µM | < 0.25 µM | –
CC(C)CN1C[C@H](C(c2cccc(F)c2)c2cccc(F)c2)n2ncc(=O)c(O)c2C1=O [Compound 86-A] | < 20 µM | < 0.25 µM | –
O=C1c2c(O)c(=O)cnn2[C@@H](C(c2ccccc2)c2ccccc2)CN1CC1CC1 [Compound 97-A] | < 20 µM | < 0.25 µM | –
CCCN1C[C@H](C(c2cccc(F)c2)c2cccc(F)c2)n2ncc(=O)c(OC(=O)C(C)C)c2C1=O [Compound 80-A] | < 20 µM | < 0.25 µM | –
CN1CC(C(c2ccc(F)cc2)c2cccc(Cl)c2)n2ncc(=O)c(O)c2C1=O (stereo not shown) [Compound 61] | < 20 µM | < 0.25 µM | –
CN1C[C@H]([C@@H](c2ccccc2)c2cccc(Cl)c2)n2ncc(=O)c(O)c2C1=O [Compound 9-A] | < 20 µM | < 0.25 µM | –
CC(C)N1CC(C2c3ccccc3CCc3ccccc32)n2ncc(=O)c(O)c2C1=O (stereo not shown) [Compound 17] | < 20 µM | < 0.25 µM | –
CCN1C[C@H]([C@H](c2ccccc2)c2cccc(Cl)c2)n2ncc(=O)c(O)c2C1=O [Compound 12-B] | < 20 µM | < 0.25 µM | –
CC(C)OC(=O)Oc1c2n(ncc1=O)[C@@H](C(c1ccccc1)c1ccccc1)CN(C(C)C)C2=O [Compound 133] | < 20 µM | ≥ 1 µM | –
Cc1cccc(C(c2ccccc2)C2CN(C)C(=O)c3c(O)c(=O)cnn32)c1 (stereo not shown) [Compound 27] | < 20 µM | < 0.25 µM | –
O=C1c2c(O)c(=O)cnn2[C@@H](C2c3ccccc3CCc3ccccc32)CN1Cc1ccccc1 [Compound 13-A] | < 20 µM | < 0.25 µM | –
CC(C)N1C[C@H](C(c2ccccc2)c2ccccc2)n2ncc(=O)c(OC(=O)C3CCCCC3)c2C1=O [Compound 112] | < 20 µM | 0.25 to 1 µM | –
CN1C[C@@H](C2c3cc(F)ccc3CCc3c(F)cccc32)n2ncc(=O)c(O)c2C1=O (stereo partly shown) [Compound 71] | 20 to 100 µM | 0.25 to 1 µM | –
CCCN1C[C@H](C(c2cccc(Cl)c2)c2cccc(Cl)c2)n2ncc(=O)c(O)c2C1=O [Compound 84-A] | < 20 µM | < 0.25 µM | –
CN1C[C@@H]([C@@H](c2ccccc2)c2ccccn2)n2ncc(=O)c(O)c2C1=O [Compound 131] | < 20 µM | < 0.25 µM | –

SMILES | EC50 ([1]; Influenza A virus) | IC50 [2] | EC50 [1]
CN1CC(C2c3ccc(F)cc3CCc3cc(F)ccc32)n2ncc(=O)c(O)c2C1=O (stereo not shown) [Compound 89] | < 20 µM | < 0.25 µM | –
CC#Cc1ccn(C(c2ccccc2)C2CN(C)C(=O)c3c(O)c(=O)cnn32)n1 (stereo not shown) [Compound 115] | < 20 µM | < 0.25 µM | –
CN1CC(C2c3cc(F)ccc3CCc3c(F)cccc32)n2ncc(=O)c(O)c2C1=O (stereo not shown) [Compound 56] | < 20 µM | < 0.25 µM | –
O=C1c2c(O)c(=O)cnn2C(C2c3ccccc3CCc3ccccc32)CN1Cc1ccccc1 (stereo not shown) [Compound 13] | < 20 µM | < 0.25 µM | –
CN1C[C@H]([C@@H]2c3cc(F)ccc3CCc3c(F)cccc32)n2ncc(=O)c(O)c2C1=O [Compound 71-A] | < 20 µM | < 0.25 µM | –
CCN1C[C@H](C(c2cccc(F)c2)c2cccc(F)c2)n2ncc(=O)c(OCOC(=O)NC)c2C1=O [Compound 94-A] | 20 to 100 µM | ≥ 1 µM | –
C#Cc1ccn([C@H](c2ccccc2)[C@@H]2CN(C)C(=O)c3c(O)c(=O)cnn32)n1 [Compound 109-A] | < 20 µM | < 0.25 µM | –
CCCN1C[C@H](C(c2cccc(F)c2)c2cccc(F)c2)n2ncc(=O)c(O)c2C1=O [Compound 74-A] | < 20 µM | < 0.25 µM | –
CN1C[C@H]([C@H](c2ccccc2)c2cccc(Cl)c2)n2ncc(=O)c(O)c2C1=O [Compound 9-B] | < 20 µM | < 0.25 µM | –
CCN1C[C@@H](C(c2cccc(C)c2)c2cccc(C)c2)n2ncc(=O)c(O)c2C1=O [Compound 36-B] | < 20 µM | ≥ 1 µM | –
CCN1CC(C(c2ccccc2)c2cccc(F)c2)n2ncc(=O)c(O)c2C1=O (stereo not shown) [Compound 24] | < 20 µM | < 0.25 µM | –
C[C@@H](N1CC(C(c2ccccc2)c2ccccc2)n2ncc(=O)c(O)c2C1=O)C(F)(F)F (stereo partly shown) [Compound 35-B] | < 20 µM | 0.25 to 1 µM | –
CC#Cc1ccn([C@@H](c2ccccc2)[C@@H]2CN(C)C(=O)c3c(O)c(=O)cnn32)n1 [Compound 115-D] | < 20 µM | ≥ 1 µM | –
CN1CC(C2c3ccccc3CCc3cccnc32)n2ncc(=O)c(O)c2C1=O (stereo not shown) [Compound 42] | < 20 µM | < 0.25 µM | –
CCC#Cc1ccn([C@H](c2ccccc2)[C@@H]2CN(C)C(=O)c3c(O)c(=O)cnn32)n1 [Compound 124] | < 20 µM | 0.25 to 1 µM | –
Cc1cccc(C(c2ccccc2)C2CN(C(C)C)C(=O)c3c(O)c(=O)cnn32)c1 (stereo not shown) [Compound 50] | < 20 µM | < 0.25 µM | –
CC(C)N1C[C@H](C(c2ccccc2)c2ccccc2)n2ncc(=O)c(OCOC(=O)C(C)(C)N)c2C1=O [Compound 113-A] | < 20 µM | < 0.25 µM | –
CC(C)N1C[C@H](C(c2ccccc2)c2cccc(Cl)c2)n2ncc(=O)c(O)c2C1=O (single isomer, unassigned) [Compound 82-A] | – | < 0.25 µM | < 20 µM
C[C@H](N1CC(C(c2ccccc2)c2ccccc2)n2ncc(=O)c(O)c2C1=O)C(F)(F)F (stereo partly shown) [Compound 35-A] | < 20 µM | < 0.25 µM | –
CN1C[C@H]([C@H]2c3cc(F)ccc3CCc3c(F)cccc32)n2ncc(=O)c(O)c2C1=O [Compound 71-B] | < 20 µM | < 0.25 µM | –
